This assay has as its system TPA-induced mouse ear edema. Briefly: TPA-induced mouse ear edema test, single topical application. The class given is in vivo. The settings on record: Balb/c mice. Here is the method: Evaluation of the Anti-Inflammatory Activity of Apratastat after a Single Topical Application in the TPA-Induced Mouse Ear Edema Test on Balb/c Mice (TPA=Tetradecanoylphorbol Acetate)
Edema is induced by single application of 20 μl of TPA dissolved in acetone at 0.01%.
The test compound is diluted in a TPA solution and applied at a concentration of 0.1%, 0.3% to 1%.
A positive control, betamethasone valerate (VdB), is also tested.
The thickness of the mouse ear is measured at T+6 h.

With `CC1(C)SCCN(S(=O)(=O)c2ccc(OCC#CCO)cc2)[C@H]1C(=O)NO` [Apratastat, (3S)—N-hydroxy-4-({4-[(4-hydroxy-2-butynyl)oxy]phenyl}sulfonyl)-2,2-dimethyl-3-thiomorpholinecarboxamide], the “reduction of the edema of the ear induced by TPA” value runs as follows: (single topical application at 0.1% in TPA solution, ear thickness at T+6 h, NS) 25%; (single topical application at 0.3% in TPA solution, ear thickness at T+6 h, **) 47%; (single topical application at 1% in TPA solution, ear thickness at T+6 h, **) 49%. Under “single topical application, 0.1% to 1%, TPA-induced ear edema”, the “anti-inflammatory effect (in words)” value is given as “dose-dependent anti-inflammatory effect”.

In the case of `CCCCC(=O)O[C@]1(C(=O)CO)[C@@H](C)C[C@H]2[C@@H]3CCC4=CC(=O)C=C[C@]4(C)[C@@]3(F)[C@@H](O)C[C@@]21C` [betamethasone valerate, reference compound], the “reduction in the edema of the ear” value (single topical application at 0.01%, diluted in TPA solution, ear thickness at T+6 h) was found to be 93%.

For the origin of these results see US20090137569A1, “Administration of (3S)-N-hydroxy-4-(sulfonyl)-2,2-dimethyl-3-thiomorpholine carboxamide or (S)-N_hydroxy-4-[4_(but-2-ynyloxy)phenylsulfonyl]-2,2-dimethyl thimomorpholine-3-carboxamide for preventing and/or treating inflammatory skin pathologies/afflictions” (GALDERMA RESEARCH & DEVELOPMENT, priority 2007, published 2009).
